# According to patent US7647217B2, “Structure of the farnesoid X receptor ligand binding domain and methods of use therefor” (The Salk Institute for Biological Studies, priority 2002, dated 2010):
# How the values were obtained:
# GAL4-FXR LBD = biological target: T1, GAL4-FXR LBD (Rattus norvegicus, UniProt Q62735); assay: GAL4 DBD-FXR LBD chimeric receptor transcriptional activation assay (with/without RXR); type: cell-based; details: for activation of chimeric FXR construct: in the presence and absence of RXR; for selectivity for FXR relative to other NHRs: chimeric NHR constructs; for efficacy compared with GW4064: in the absence of RXR
# T1 construct: expressed in transfected cells; host or cells: CV-1 (monkey)
# T1 sequence (Q62735 245-469 limits assumed): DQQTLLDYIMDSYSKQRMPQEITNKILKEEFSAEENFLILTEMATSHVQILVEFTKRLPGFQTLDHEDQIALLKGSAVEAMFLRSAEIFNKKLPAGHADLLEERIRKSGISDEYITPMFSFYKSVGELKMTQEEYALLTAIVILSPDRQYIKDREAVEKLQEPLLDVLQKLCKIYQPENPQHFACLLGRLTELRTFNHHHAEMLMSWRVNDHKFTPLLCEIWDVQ
# Experimental: (§1) FIGS. 3A-3E collectively show the results of ligand activation of CV-1 cells co-transfected with a luciferase reporter gene with a variety of receptor expression constructs. […] FIGS. 3C-3E show the results of CV-1 cells transiently transfected with the indicated reporter constructs, treated with either DMSO or 10 μM of the compounds fexaramine (3C), fexarine (3D), fexarene (3E). Reporter activity was normalized to the internal control and the data plotted as fold activation relative to untreated cells. All transfections contained CMX-βgal as an internal control.
# (§2) The expression plasmids pCMX, pCMX-LacZ, pCMX-mFXRFL, pCMX-hRXRFL, pCMX-GALDBD-rFXRLBD and other pCUX-GALDBD-NR LBDs (hRXRα, hPPARαγδ, mPXR, hPXR, hLXRα, HTRβ, hRARβ, mCAR, mERR3 and hVDR) have been described elsewhere (Blumberg et al. (1998). SXR, a novel steroid and xenobiotic-sensing nuclear receptor. Genes Dev. 12(20), 3195-205). The reporter plasmids pMH2004-TK-luc, pTKECRE*6-luc, pTKER-8*2-luc and pMRP-2-luc also have been described elsewhere. The hPLTP-luc promoter was kindly provided by Dr Dennis Dowhan and the hIBABP-luc promoter was created from a plasmid provided by Dr Philippe Besnard.
# For transfection of these constructs, monkey CV-1 HEPG2 and HEK293T cells were grown in DMEM supplemented with 10% FBS, 50 U/ml penicillin G, and 50 μg/ml streptomycin sulfate at 37° C. in 7% CO2. CV-1 cells (60%-70% confluence, 48-well plate) were cotransfected with 16.6 ng of the appropriate expression vector, 100 ng of reporter plasmid, and 100 ng of pCMX-LacZ in 200 μl of DMEM containing 10% FBS by the N-[1-(2,3-dioleoyloxy)propyl]-N,N,N-trimethylammonium methylsulfate (DOTAP)-mediated procedure. After 24 hr, the medium was replaced, and cells were harvested and assayed for luciferase activity 36-48 hr after transfection. The luciferase activity was normalized to the level of β-galactosidase activity. Each transfection was performed in triplicate and repeated at least three times.
# (§3) Cell-based transcriptional activation assays using chimeric nuclear hormone receptor (NHR) constructs were established to measure the selectivity of the compounds to FXR relative to other NHRs (Forman et al. (1995). Identification of a nuclear receptor that is activated by farnesol metabolites. Cell 81, 687-693). These assays used fusion proteins with the yeast GAL4 DNA binding domain connected to the ligand-binding domain (LBD) of NHRs. These constructs were co-transfected with a thymidine kinase C minimal promoter reporter vector containing four copies of the GAL4 binding site. Titration experiments were then performed using the identified compounds. […] Addition of RXR had no effect on the activation potential of fexaramine, fexarine, fexarene in this assay.
# [1] = tested on: FXR target genes SHP, MRP-2, BSEP and PLTP in HEPG2-FXR cells; assay: Northern blot of FXR target genes in HEPG2-FXR cells; type: cell-based, human; details: for induction of FXR target genes: SHP, MRP-2, BSEP, PLTP; for concentration of maximal activation of FXR target genes: overnight treatment
# Experimental: 20 μg total RNA was isolated using Trizol (Invitrogen) and used for Northern blot analysis. cDNA probes for human PLTP, SHP, MRP-2 and BSEP were prepared and hybridized to the blot. Blots were normalized by 36B4 expression as shown.
# (§4) HepG2 or HT29-derived cell lines were typically cultured in medium containing superstripped FBS for 24 hr before the addition of a ligand or DMSO (vehicle) for an additional 24-48 hr. Total RNA was isolated using TRIzol reagent and was resolved (10 μg/lane) on a 1% agarose, 2.2 M formaldehyde gel, transferred to a nylon membrane (Hybond N^+; Amersham Biosciences, Inc.), and cross-linked to the membrane with UV light.
# (§5) cDNA probes were radiolabeled with [α-^32P]dCTP using the highprime labeling kit (Amersham Biosciences, Inc.). Membranes were hybridized using the QuikHyb hybridization solution (Stratagene, La Jolla, Calif.) according to the manufacturer's protocol. Blots were normalized for variations of RNA loading by hybridization to a control probe, either, 18 S ribosomal cDNA, or the ribosomal protein 36B4. The RNA levels were quantitated using a PhosphorImager (ImageQuant software; Molecular Dynamics, Inc., Sunnyvale, Calif.) in addition to being exposed to X-ray film.
# Total RNA was isolated and the expression of the FXR target genes SHP, MRP-2, BSEP and PLTP was measured by Northern blot analysis (see FIG. 4E).
# Differences in efficacy of target gene induction between the liver and the intestinal cell systems may reflect the ability of the liver hepatocytes to mount a xenobotic response or cell specific permeability to the identified compounds. Modification of the ligands to overcome these effects may be made in order to increase the efficacy of these drugs in liver cell systems.
# [2] = tested on: IBABP mRNA in HT29-FXRFL cells; assay: Northern blot of IBABP mRNA induction in HT29 stable cell lines; type: cell-based, human; details: for induction of IBABP mRNA in control lines: HT29-BABE or HT29-FXR-AF2 cell lines; for concentration of maximal activation of the IBABP gene / induction of IBABP mRNA: HT29-FXRFL, overnight treatment
# Experimental: 20 μg total RNA was isolated using Trizol (Invitrogen) and used for Northern blot analysis. cDNA probe for human IBABP was prepared and hybridized to the blot. Blots were normalized by β-actin expression.
# as §4, §5
# Human colon cells HT29 (FXR null until differentiated) were infected with retroviral vectors that expressed either FXR constructs and the puromycin-resistant gene or the puromycin-resistant gene alone. Puromycin resistant cells were isolated and pooled cell populations were propagated that harbored either the vector alone (HT29-BABE), overexpressed FXR full length (HT29-FXRFL), a non-functional FXR truncated at the AF2 region (HT29-FXR-AF2), or a constitutively active FXR that has the VP16 activation domain fused N-terminal of the protein (HT29-VP16-FXR). Confirmation of the successful establishment of the different stable cell lines was established via northern blot analysis of FXR message levels in the cells (see FIG. 4A). […]
# The ability of the novel compounds identified herein to induce IBABP gene expression in this cell system was also examined. Total RNA from HT29 stable cells treated overnight with fexaramine, fexarine and fexarene was probed for IBABP gene expression (see FIG. 4D).
# hPPARαγδ = assay: GAL4 chimeric NHR cross-reactivity assay; type: cell-based, human; details: 10 μM
# Experimental: as §1, §2, §3
# No activity was observed on other chimeric NHR constructs including hRXRα, hPPARαγδ, mPXR, hPXR, hLXRα, hTRβ, hRARβ, mCAR, mERR3 and hVDR (see FIGS. 3C-3E).
SMILES,activation of chimeric FXR construct (GAL4-FXR LBD),induction of FXR target genes [1],concentration of maximal activation of FXR target genes [1] [µM],effect of addition of RXR on activation potential (GAL4-FXR LBD),selectivity for FXR relative to other NHRs (GAL4-FXR LBD),efficacy compared with GW4064 (GAL4-FXR LBD),induction of IBABP mRNA in control lines [2],concentration of maximal activation of the IBABP gene [2] [µM],induction of IBABP mRNA [2],activity on chimeric hPPARαγδ constructs (hPPARαγδ)
COC(=O)/C=C/c1cccc(N(Cc2ccc(-c3ccc(C(C)(C)C)cc3)cc2)C(=O)C(C)C)c1 [SRI-2],little or no activity,–,–,–,–,–,–,–,–,–
COC(=O)/C=C/c1cccc(N(Cc2ccc(-c3ccc(N(C)C)cc3)cc2)C(=O)C2CCCCC2)c1 [fexaramine],activate,most effective inducer,10,no effect,highly selective for FXR,more efficacious ligands for FXR than GW4064,No induction,1,induced expression of the IBABP mRNA,No activity
COC(=O)/C=C/c1cccc(N(Cc2ccc(-c3ccc4c(c3)OCO4)cc2)C(=O)C2CCCCC2)c1 [fexarine],activate,strong induction,10,no effect,highly selective for FXR,more efficacious ligands for FXR than GW4064,No induction,1,induced expression of the IBABP mRNA,No activity
COC(=O)/C=C/c1cccc(N(Cc2ccc(-c3ccccc3OC)cc2)C(=O)C(C)C)c1 [SRI-1],little or no activity,–,–,–,–,–,–,–,–,–
"CC(C)c1onc(-c2c(Cl)cccc2Cl)c1COc1ccc(/C=C/c2cccc(C(=O)O)c2)c(Cl)c1 [GW4064, reference compound]",activate,–,–,–,–,–,No induction,1,robust concentration dependent induction,–
COC(=O)/C=C/c1cccc(N(Cc2ccc(/C=C/c3ccccc3)cc2)C(=O)C2CCCCC2)c1 [fexarene],activate,strong induction,10,no effect,highly selective for FXR,more efficacious ligands for FXR than GW4064,No induction,1,induced expression of the IBABP mRNA,No activity
